Test results taken from patent US20110097268A1, “RADIOHALOIMATINIBS AND METHODS OF THEIR SYNTHESIS AND USE IN PET IMAGING OF CANCERS” (priority 2006, published 2011).

Experiment: Storage stability of STI-Cl at room temperature
Assay type: physicochemical
Source text: Attempts to make radiolabeling precursor, triflate, mesylate active leaving group from STI-OH failed because it was easily degraded into a mixture of starting material alcohol and STI-Cl during the purification of chromatography on Silica Gel. The behavior of these β-triflate amines may be due to the participation effect of nitrogen which cause triflate to leave by aliphatic chain cyclisation giving the aziridinium ion, which in turn reacts with the nucleophilic agent OH^−, Cl^−. In order to get a pure precursor, STI-Cl analog was selected as a target compound. The hydroxyl-Benzoic acid (9c) was treated with thionyl chloride to achieve the corresponding chloro-acid chloride dihydrochloride (10d). Subsequent condensation with N-(2-Methyl-5-aminophenyl)-4-(3-pyridyl)-2-pyrimidine-amine (6) in pyridine affords the STI-Cl. […] The Sti-Cl was treated with tetra ammonia fluoride at 80° C. in acetonitrile for 30 mins to generate cold Sti-F. Sti-Cl was also treated with tetra ammonia fluoride at 80° C. in acetonitrile microwave for 5 mins to generate cold Sti-F. The traditional heating method gave more yield and the microwave condition gave more clean reaction. (FIG. 3).

Question: With `Cc1ccc(NC(=O)c2ccc(CN3CCN(CCCl)CC3)cc2)cc1Nc1nccc(-c2cccnc2)n1` [STI-Cl] as the compound, how does the stability read?
Answer: not stable and decomposed at room temperature over two weeks
